Source: patent US20070078120A1, “Novel piperidine derivative” (priority 2003, published 2007)
Where a name gives a salt, the structure may show the parent alone.

What was measured:
[1] = tested on: LDL receptor; assay: LDL receptor activity: amount of DiI-LDL uptaken into HepG2 cells; format: cell-based, human; details: DiI-LDL uptake into HepG2 cells, control group = 100%
Procedure: A preparation of 1,1′-dioctadecyl-3,3,3′,3′-tetramethylindocarbocyanine perchlorate (DiI)-labeled LDL (DiI-LDL) was carried out as follows. That is, DiI (invitrogen, the U.S.) was mixed with human LDL (CHEMICON, the U.S.), and the mixture was kept for 8 hours at 37° C. Thereto a specific density solution (d=1.182) was added and mixed, and then treated with super centrifugation operation (32 k rpm, 14 hours; using Beckman Ti55.2 rotator). After the centrifugation, the DiI labeled LDL fraction was taken up and prepared via a dialysis against saline.
The action on LDL receptor was determined with the amount of the DiI-LDL uptaken into HepG2 cells which was as an indicator. Namely, human hepatoma cell line HepG2 was bought from DAINIPPON PHARMACEUTICAL CO., LTD (Osaka, Japan) and it was used for the experiment. The HepG2 cells were plated on a 96 well plate and incubated with Dulbecco's modified Eagle/F-12 medium (DMEM/F-12) containing 10% fetal bovine serum and antibiotics for 2-3 days at 37° C. in a CO2 incubator. After washing the cells, DMEM/F-12 media containing the test compound, 10% delipoprotein serum and antibiotics was added thereto and cells were incubated for 19 hours at 37° C. The DiI-LDL was added thereto, and cells were incubated for additional 5 hours at 37° C. in a CO2 incubator. For the measurement of the amount of nonspecific DiI-LDL uptake, another 30-50 times the nonlabeled LDL was added additively to each well. After washing cells with Dulbecco's phosphate buffer (SIGMA, the U.S.), Dulbecco's phosphate buffer was added to each well, and then the fluorescence value was measured with a fluorescence plate reader to determine the amount of the DiI-LDL uptaken into cells. After measuring the fluorescence, the Dulbecco's phosphate buffer was removed. Cells were dissolved in 1N sodium hydroxide solution. Using a part of the solution, the protein amount was measured. The action of each compound on LDL receptor was estimated on the basis of 100% of the control group, using the value given by subtracting the nonspecifically uptaken amount from the calculated fluorescence value/protein amount.

[2] = tested on: LDL receptor; assay: Measurement of LDL receptor expression: LDL-R protein amount by immunoblotting in HepG2 cells; format: cell-based, human; details: compared with the control group
Procedure: We investigated the effect of each test compound on the amount of LDL receptor in HepG2 cells, a human hepatoma cell line. Cells were seeded in each well of 6-well plates at the density of 7.5×10^5 cells/well (day 1). On day 3, the culture media was changed to a media containing lipoprotein deficient serum and the test compound. On day 4, the cells were scraped and then collected by centrifugation operation. The collected cells were lysed in a buffer containing 0.1% TritonX-100, treated with centrifugation, and then the supernatant was given as a cell protein solution. Using the prepared cell protein solution, the LDL-R protein amount was determined with an immunoblotting procedure.
HepG2 cells were treated with the compound of Examples 1-4, and then LDL receptor protein amount was determined by immunoblotting procedure.

| Molecule | Activity of LDL receptor(%) ([1]; 10 μM) | further results |
| --- | --- | --- |
| COc1cccc(C2(C#N)CCN(C3CCNCC3)CC2)c1 [Example 85, 4-(3-methoxyphenyl)-1,4′-bipiperidine-4-carbonitrile dihydrochloride] | 149% | – |
| COc1cccc(C2(C(=S)NCc3ccccc3)CCN(c3ncccn3)CC2)c1 [Example 44, N-benzyl-4-(3-methoxyphenyl)-1-pyrimidin-2-ylpiperidine-4-carbothioamide] | – | Activity of LDL receptor(%) ([1]; 3 μM): 135% |
| COc1cccc(C2(C(=O)NCc3ccccc3)CCN(c3ncccn3)CC2)c1 [Example 43-2, N-benzyl-4-(3-methoxyphenyl)-1-pyrimidin-2-ylpiperidine-4-carboxyamide] | 116% | – |
| COc1cccc(C2(CN3CCCCC3)CCN(c3ccccc3OC)CC2)c1 [Example 55-1, 1-(2-methoxyphenyl)-4-(3-methoxyphenyl)-4-(piperidin-1-ylmethyl)piperidine] | – | Activity of LDL receptor(%) ([1]; 1 μM): 141% |
| COc1cccc(C2(C(N)=O)CC3CCC(C2)N3c2ccccc2OC)c1 (centres unmarked) [Example 49-f, 8-(2-Methoxyphenyl)-3-(3-methoxyphenyl)-8-azabicyclo-[3.2.1]octane-3-carboxyamide] | 135% | – |
| COc1cccc(C2(C#N)CCC(N3CCN(c4ncccn4)CC3)CC2)c1 (centres unmarked) [Example 82, 1-(3-methoxyphenyl)-4-(4-pyrimidin-2-yl-piperazin-1-yl)cyclohexanecarbonitrile] | 125% | – |
| COc1cccc([C@]2(C#N)CC[C@H](N3CCNCC3)CC2)c1 [Example 58-1, trans-1-(3-methoxyphenyl)-4-piperazin-1-yl-cyclohexanecarbonitrile dihydrochloride] | 152% | – |
| COc1cccc(C2(CO)CCN(c3ccccc3OC)CC2)c1 [Example 12, [1-(2-Methoxyphenyl)-4-(3-methoxyphenyl)piperidin-4-yl]-methanol] | 134% | – |
| COc1cccc(C2(C#N)CCN(c3nc4ccccc4s3)CC2)c1 [Example 7-3, 1-(1,3-Benzothiazol-2-yl)-4-(3-methoxyphenyl)piperidine-4-carbonitrile] | – | Activity of LDL receptor(%) ([1]; 3 μM): 125% |
| COc1cccc(C2(C#N)CCN(c3ccccc3OC)CC2)c1 [Example 1-4, 1-(2-methoxyphenyl)-4-(3-methoxyphenyl)-piperidine-4-carbonitrile] | 134% | LDL receptor protein amount (immunoblotting) ([2]; 1 μM): superior activity enhancing the protein amount of LDL receptor; LDL receptor protein amount (immunoblotting) ([2]; 10 μM): superior activity enhancing the protein amount of LDL receptor |
| COc1cccc([C@]2(C#N)CC[C@@H](NCc3ccccc3)CC2)c1 [Example 105, cis-4-(benzylamino)-1-(3-methoxyphenyl)-cyclohexanecarbonitrile] | 139% | – |
| 1-(2-methoxyphenyl)-4-[3-(methylamino)-phenyl]piperidine-4-carbonitrile and 4-[3-(dimethylamino)-phenyl]-1-(2-methoxyphenyl)piperidine-4-carbonitrile [Example 20] | 123% | – |
| COc1cccc(C2(C#N)CCN(C3CCN(Cc4ccccc4)CC3)CC2)c1 [Example 89, 1′-benzyl-4-(3-methoxyphenyl)-1,4′-bipiperidine-4-carbonitrile] | 195% | – |
| COc1cccc([C@]2(C#N)CC[C@H](N3CCNCC3)CC2)c1 (as salt: hydrochloride) [Example 58-1, trans-1-(3-methoxyphenyl)-4-piperazin-1-yl-cyclohexanecarbonitrile dihydrochloride] | – | melting point: 159 to 160 °C |
| COc1cccc(C2(C#N)CCN(c3ncccc3OCc3ccccc3)CC2)c1 [Example 6-3, 1-[3-(Benzyloxy)pyridin-2-yl]-4-(3-methoxyphenyl)-piperidine-4-carbonitrile] | 127% | – |
